Reference: patent US20230085307A1, “PYRIDAZINONE COMPOUND AND HERBICIDE” (NISSAN CHEMICAL CORPORATION, priority 2019, published 2023)

Tests used:
[1] = system: barnyard grass; assay: Test Example 3: herbicidal effect by foliage application, Wagner pot (Table 18, symbol H); assay type: in vivo, barnyard grass (Echinochloa crus-galli); conditions: 320 g/ha
In short: (§1)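 Plants were sown in alluvial soil held under 0.1–0.5 cm standing water and grown 14 days in a greenhouse at 25–30 °C. An emulsifiable formulation, water-diluted to the set dose, was then sprayed onto the foliage, and effects were scored three weeks later using previously defined criteria.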

[2] = system: windgrass; assay: Test Example 5: herbicidal effect by foliage application, plastic box (Table 20, symbol L); assay type: in vivo, windgrass (Apera spica-venti); conditions: foliage application, AAH 320 g/ha, three weeks after application
In short: (§2)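 Foliar spray test: emulsion formulation diluted in water to a set application rate, sprayed onto 14-day-old plants raised in diluvial soil at 25° C to 30° C under glass. Both herbicidal effect and crop effect rated visually three weeks later.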

[3] = system: barnyard grass; assay: Test Example 4: herbicidal effect by soil treatment (Table 19, symbol H); assay type: in vivo, barnyard grass (Echinochloa crus-galli); conditions: AAH 320 g/ha
In short: (§3)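 Step 1: sow seeds in sterilized diluvial soil, cover ~1.5 cm. Step 2: spray diluted emulsion onto soil surface at predetermined rate. Step 3: greenhouse, 25–30° C, three weeks. Step 4: grade effect on each plant by earlier criteria.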

[4] = system: chickweed; assay: Test Example 5: herbicidal effect by foliage application, plastic box (Table 20, symbol P); assay type: in vivo, common chickweed (Stellaria media); conditions: foliage application, AAH 320 g/ha, three weeks after application
In short: as §2

[5] = system: lambsquarters; assay: Test Example 4: herbicidal effect by soil treatment (Table 19, symbol O); assay type: in vivo, lambsquarters (Chenopodium album); conditions: AAH 320 g/ha
In short: as §3

[6] = system: barnyard grass; assay: Test Example 5: herbicidal effect by foliage application, plastic box (Table 20, symbol H); assay type: in vivo, barnyard grass (Echinochloa crus-galli); conditions: foliage application, AAH 320 g/ha, three weeks after application
In short: as §2

[7] = system: southern crabgrass; assay: Test Example 4: herbicidal effect by soil treatment (Table 19, symbol F); assay type: in vivo, southern crabgrass (Digitaria ciliaris); conditions: AAH 320 g/ha
In short: as §3

[8] = system: Italian ryegrass; assay: Test Example 4: herbicidal effect by soil treatment (Table 19, symbol K); assay type: in vivo, Italian ryegrass (Lolium multiflorum); conditions: AAH 320 g/ha
In short: as §3

[9] = system: Italian ryegrass; assay: Test Example 5: herbicidal effect by foliage application, plastic box (Table 20, symbol K); assay type: in vivo, Italian ryegrass (Lolium multiflorum); conditions: foliage application, AAH 320 g/ha, three weeks after application
In short: as §2

[10] = system: blackgrass; assay: Test Example 5: herbicidal effect by foliage application, plastic box (Table 20, symbol J); assay type: in vivo, blackgrass (Alopecurus myosuroides); conditions: foliage application, AAH 320 g/ha, three weeks after application
In short: as §2

[11] = system: green foxtail; assay: Test Example 5: herbicidal effect by foliage application, plastic box (Table 20, symbol G); assay type: in vivo, green foxtail (Setaria viridis); conditions: foliage application, AAH 320 g/ha, three weeks after application
In short: as §2

[12] = system: lambsquarters; assay: Test Example 5: herbicidal effect by foliage application, plastic box (Table 20, symbol O); assay type: in vivo, lambsquarters (Chenopodium album); conditions: foliage application, AAH 320 g/ha, three weeks after application
In short: as §2

[13] = system: Chinese sprangletop; assay: Test Example 3: herbicidal effect by foliage application, Wagner pot (Table 18, symbol D); assay type: in vivo, chinese sprangletop (Leptochloa chinensis); conditions: 320 g/ha
In short: as §1

[14] = system: velvetleaf; assay: Test Example 4: herbicidal effect by soil treatment (Table 19, symbol M); assay type: in vivo, velvetleaf (Abutilon theophrasti); conditions: AAH 320 g/ha
In short: as §3

[15] = system: rice flat sedge; assay: Test Example 3: herbicidal effect by foliage application, Wagner pot (Table 18, symbol E); assay type: in vivo, rice flat sedge (Cyperus iria); conditions: 320 g/ha
In short: as §1

[16] = system: southern crabgrass; assay: Test Example 5: herbicidal effect by foliage application, plastic box (Table 20, symbol F); assay type: in vivo, southern crabgrass (Digitaria ciliaris); conditions: foliage application, AAH 320 g/ha, three weeks after application
In short: as §2

[17] = system: redroot pigweed; assay: Test Example 5: herbicidal effect by foliage application, plastic box (Table 20, symbol N); assay type: in vivo, redroot pigweed (Amaranthus retroflexus); conditions: foliage application, AAH 320 g/ha, three weeks after application
In short: as §2

[18] = system: chickweed; assay: Test Example 4: herbicidal effect by soil treatment (Table 19, symbol P); assay type: in vivo, common chickweed (Stellaria media); conditions: AAH 320 g/ha
In short: as §3

[19] = system: velvetleaf; assay: Test Example 5: herbicidal effect by foliage application, plastic box (Table 20, symbol M); assay type: in vivo, velvetleaf (Abutilon theophrasti); conditions: foliage application, AAH 320 g/ha, three weeks after application
In short: as §2

[20] = system: green foxtail; assay: Test Example 4: herbicidal effect by soil treatment (Table 19, symbol G); assay type: in vivo, green foxtail (Setaria viridis); conditions: AAH 320 g/ha
In short: as §3

[21] = system: wild oat; assay: Test Example 5: herbicidal effect by foliage application, plastic box (Table 20, symbol I); assay type: in vivo, wild oat (Avena fatua); conditions: foliage application, AAH 320 g/ha, three weeks after application
In short: as §2

[22] = system: redroot pigweed; assay: Test Example 4: herbicidal effect by soil treatment (Table 19, symbol N); assay type: in vivo, redroot pigweed (Amaranthus retroflexus); conditions: AAH 320 g/ha
In short: as §3

[23] = system: blackgrass; assay: Test Example 4: herbicidal effect by soil treatment (Table 19, symbol J); assay type: in vivo, blackgrass (Alopecurus myosuroides); conditions: AAH 320 g/ha
In short: as §3

[24] = system: persian speedwell; assay: Test Example 4: herbicidal effect by soil treatment (Table 19, symbol R); assay type: in vivo, Persian speedwell (Veronica persica); conditions: AAH 320 g/ha
In short: as §3

[25] = system: wild oat; assay: Test Example 4: herbicidal effect by soil treatment (Table 19, symbol I); assay type: in vivo, wild oat (Avena fatua); conditions: AAH 320 g/ha
In short: as §3

[26] = system: persian speedwell; assay: Test Example 5: herbicidal effect by foliage application, plastic box (Table 20, symbol R); assay type: in vivo, Persian speedwell (Veronica persica); conditions: foliage application, AAH 320 g/ha, three weeks after application
In short: as §2

Question: Which “herbicidal effect on H (barnyard grass), rating 0-5” value [1] does the source give for `COc1ccc(Cl)cc1-c1sc2ccccc2c1-c1c(O)c(OC)nn(C)c1=O` [1-178] here?
Answer: 4 (Herbicidal rate of 70% or more and less than 90%)

Question: What about the “L: windgrass, herbicidal effect” value [2] of the same compound?
Answer: 4 (Herbicidal rate of 70% or more and less than 90%)

Question: What about the “H: barnyard grass, herbicidal effect rating” value [3] of the same compound?
Answer: 0 (Herbicidal rate of 5% or less (almost no effect))

Question: And the “P: chickweed, herbicidal effect” value [4]?
Answer: 5 (Herbicidal rate of 90% or more (almost completely withered))

Question: And the “O: lambsquarters, herbicidal effect rating” value [5]?
Answer: 0 (Herbicidal rate of 5% or less (almost no effect))

Question: What about the “H: barnyard grass, herbicidal effect” value [6] of the same compound?
Answer: 4 (Herbicidal rate of 70% or more and less than 90%)

Question: And the “F: southern crabgrass, herbicidal effect rating” value [7]?
Answer: 0 (Herbicidal rate of 5% or less (almost no effect))

Question: And the “K: Italian ryegrass, herbicidal effect rating” value [8]?
Answer: 0 (Herbicidal rate of 5% or less (almost no effect))

Question: What about the “K: Italian ryegrass, herbicidal effect” value [9] of the same compound?
Answer: 0 (Herbicidal rate of 5% or less (almost no effect))

Question: What about the “J: blackgrass, herbicidal effect” value [10] of the same compound?
Answer: 1 (Herbicidal rate of 5% or more and less than 20%)

Question: What about the “G: green foxtail, herbicidal effect” value [11] of the same compound?
Answer: 4 (Herbicidal rate of 70% or more and less than 90%)

Question: And the “O: lambsquarters, herbicidal effect” value [12]?
Answer: 4 (Herbicidal rate of 70% or more and less than 90%)

Question: What about the “herbicidal effect on D (Chinese sprangletop), rating 0-5” value [13] of the same compound?
Answer: 0 (Herbicidal rate of 5% or less (almost no effect))

Question: And the “M: velvetleaf, herbicidal effect rating” value [14]?
Answer: 0 (Herbicidal rate of 5% or less (almost no effect))

Question: What about the “herbicidal effect on E (rice flat sedge), rating 0-5” value [15] of the same compound?
Answer: 5 (Herbicidal rate of 90% or more (almost completely withered))

Question: What about the “F: southern crabgrass, herbicidal effect” value [16] of the same compound?
Answer: 3 (Herbicidal rate of 40% or more and less than 70%)

Question: And the “N: redroot pigweed, herbicidal effect” value [17]?
Answer: 5 (Herbicidal rate of 90% or more (almost completely withered))

Question: What about the “P: chickweed, herbicidal effect rating” value [18] of the same compound?
Answer: 4 (Herbicidal rate of 70% or more and less than 90%)

Question: What about the “M: velvetleaf, herbicidal effect” value [19] of the same compound?
Answer: 3 (Herbicidal rate of 40% or more and less than 70%)

Question: And the “G: green foxtail, herbicidal effect rating” value [20]?
Answer: 0 (Herbicidal rate of 5% or less (almost no effect))

Question: What about the “I: wild oat, herbicidal effect” value [21] of the same compound?
Answer: 4 (Herbicidal rate of 70% or more and less than 90%)

Question: And the “N: redroot pigweed, herbicidal effect rating” value [22]?
Answer: 4 (Herbicidal rate of 70% or more and less than 90%)

Question: What about the “J: blackgrass, herbicidal effect rating” value [23] of the same compound?
Answer: 1 (Herbicidal rate of 5% or more and less than 20%)

Question: And the “R: persian speedwell, herbicidal effect rating” value [24]?
Answer: 4 (Herbicidal rate of 70% or more and less than 90%)

Question: What about the “I: wild oat, herbicidal effect rating” value [25] of the same compound?
Answer: 0 (Herbicidal rate of 5% or less (almost no effect))

Question: And the “R: persian speedwell, herbicidal effect” value [26]?
Answer: 4 (Herbicidal rate of 70% or more and less than 90%)
